Experimental data from patent US7943770B2, “Fused quinoline derivative and use thereof” (Takeda Pharmaceutical Company Limited, priority 2004, dated 2011).

These molecules were tested against T1, hNK2 receptor (Homo sapiens, UniProt P21452) (assay: Radio-ligand ([125I]-NKA) receptor binding inhibitory activity using membrane fraction of hNK2 receptor-expressing CHO cell). Conditions: membrane fraction of hNK2 receptor-expressing CHO cells, 25° C., 30 min.
T1 construct: host or cells: CHO cells
T1 sequence (P21452 1-398): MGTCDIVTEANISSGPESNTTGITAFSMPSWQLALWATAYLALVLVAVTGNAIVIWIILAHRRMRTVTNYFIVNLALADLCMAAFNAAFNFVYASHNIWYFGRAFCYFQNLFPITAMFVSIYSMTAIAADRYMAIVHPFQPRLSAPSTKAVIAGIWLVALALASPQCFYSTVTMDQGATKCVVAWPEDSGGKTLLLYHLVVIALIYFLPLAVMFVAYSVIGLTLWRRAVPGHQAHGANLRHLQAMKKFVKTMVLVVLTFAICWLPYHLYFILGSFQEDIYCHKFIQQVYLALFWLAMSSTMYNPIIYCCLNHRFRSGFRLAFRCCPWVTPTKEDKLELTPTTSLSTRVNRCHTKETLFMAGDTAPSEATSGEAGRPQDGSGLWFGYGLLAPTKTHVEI
Method in brief: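 Inhibition of [125I]-NKA binding ([…] solution added) measured after 30 min at 25 °C using hNK2-CHO membrane fraction (20 μg/mL suspension) in pH 7.4 Tris buffer containing MnCl2, BSA and protease inhibitors. Filter-bound counts read; activity calculated as fraction of specific binding, non-specific defined with unlabeled NKA.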

Structure (SMILES)	IC50
O=C(NC1CCCCC1)N[C@@H]1CCCC[C@@H]1C(=O)N1CC[C@@H]2[C@H](c3ccccc3)Nc3ccccc3[C@@H]21 [Example 149, N-Cyclohexyl-N′-((1R,2S)-2-{[(3aR,4R,9bR)-4-phenyl-2,3,3a,4,5,9b-hexahydro-1H-pyrrolo[3,2-c]quinolin-1-yl]carbonyl}cyclohexyl)urea]	< 10 nM
CC(C)c1ccc(NC(=O)N[C@@H]2CCCC[C@@H]2C(=O)N2CC[C@@H]3[C@H](c4ccccc4)Nc4ccccc4[C@@H]32)cc1 [Example 150, N-(4-Isopropylphenyl)-N′-((1R,2S)-2-{[(3aR,4R,9bR)-4-phenyl-2,3,3a,4,5,9b-hexahydro-1H-pyrrolo[3,2-c]quinolin-1-yl]carbonyl}cyclohexyl)urea]	< 10 nM
CCOC(=O)c1ccc(NC(=O)N[C@@H]2CCCC[C@@H]2C(=O)N2CC[C@@H]3[C@H](c4ccccc4)Nc4ccccc4[C@@H]32)cc1 [Example 159, Ethyl 4-({[((1R,25)-2-{[(3aR,4R,9bR)-4-phenyl-2,3,3a,4,5,9b-hexahydro-1H-pyrrolo[3,2-c]quinolin-1-yl]carbonyl}cyclohexyl)amino]carbonyl}amino)benzoate]	< 10 nM
NC(=O)c1ccc(NC(=O)N[C@@H]2CCCC[C@@H]2C(=O)N2CC[C@@H]3[C@H](c4ccccc4)Nc4ccccc4[C@@H]32)cc1 [Example 160, 4-({[((1R,25)-2-{[(3aR,4R,9bR)-4-Phenyl-2,3,3a,4,5,9b-hexahydro-1H-pyrrolo[3,2-c]quinolin-1-yl]carbonyl}cyclohexyl)amino]carbonyl}amino)benzamide]	< 1 nM
O=C(NCCc1ccccn1)N[C@@H]1CCCC[C@@H]1C(=O)N1CC[C@@H]2[C@H](c3ccccc3)Nc3ccccc3[C@@H]21 [Example 164, N-((1R,2S)-2-{[(3aR,4R,9bR)-4-Phenyl-2,3,3a,4,5,9b-hexahydro-1H-pyrrolo[3,2-c]quinolin-1-yl]carbonyl}cyclohexyl)-N′-(2-pyridin-2-ylethyl)urea]	< 1 nM
O=C(NCCCN1CCCC1=O)N[C@@H]1CCCC[C@@H]1C(=O)N1CC[C@@H]2[C@H](c3ccccc3)Nc3ccccc3[C@@H]21 [Example 168, N-[3-(2-oxopyrrolidin-1-yl)propyl]-N′-((1R,2S)-2-{[(3aR,4R,9bR)-4-phenyl-2,3,3a,4,5,9b-hexahydro-1H-pyrrolo[3,2-c]quinolin-1-yl]carbonyl}cyclohexyl)urea]	< 10 nM
O=C(Nc1ccccn1)N[C@@H]1CCCC[C@@H]1C(=O)N1CC[C@@H]2[C@H](c3ccccc3)Nc3ccccc3[C@@H]21 [Example 170, N-((1R,2S)-2-{[(3aR,4R,9bR)-4-Phenyl-2,3,3a,4,5,9b-hexahydro-1H-pyrrolo[3,2-c]quinolin-1-yl]carbonyl}cyclohexyl)-N′-pyridin-2-ylurea]	< 10 nM
O=C(Nc1cccnc1)N[C@@H]1CCCC[C@@H]1C(=O)N1CC[C@@H]2[C@H](c3ccccc3)Nc3ccccc3[C@@H]21 [Example 171, N-((1R,2S)-2-{[(3aR,4R,9bR)-4-Phenyl-2,3,3a,4,5,9b-hexahydro-1H-pyrrolo[3,2-c]quinolin-1-yl]carbonyl}cyclohexyl)-N′-pyridin-3-ylurea]	< 10 nM
O=C(N[C@@H]1CCCC[C@@H]1C(=O)N1CC[C@@H]2[C@H](c3ccccc3)Nc3ccccc3[C@@H]21)N1CCC(c2ccccc2)CC1 [Example 172, 4-Phenyl-N-((1R,2S)-2-{[(3aR,4R,9bR)-4-phenyl-2,3,3a,4,5,9b-hexahydro-1H-pyrrolo[3,2-c]quinolin-1-yl]carbonyl}cyclohexyl)piperidine-1-carboxamide]	< 10 nM
CC(=O)N1CCC(NC(=O)N[C@@H]2CCCC[C@@H]2C(=O)N2CC[C@@H]3[C@H](c4ccccc4)Nc4ccccc4[C@@H]32)CC1 [Example 175, N-(1-Acetylpiperidin-4-yl)-N′-((1R,2S)-2-{[(3aR,4R,9bR)-4-phenyl-2,3,3a,4,5,9b-hexahydro-1H-pyrrolo[3,2-c]quinolin-1-yl]carbonyl}cyclohexyl)urea]	< 10 nM
O=C(N[C@@H]1C2CCC(CC2)[C@@H]1C(=O)N1CC[C@@H]2[C@H](c3ccccc3)Nc3ccccc3[C@@H]21)c1ccccc1 [Example 178, N-((2R,3S)-3-{[(3aR,4R,9bR)-4-Phenyl-2,3,3a,4,5,9b-hexahydro-1H-pyrrolo[3,2-c]quinolin-1-yl]carbonyl}bicyclo[2.2.2]oct-2-yl)benzamide]	< 10 nM
COc1ccc(C(=O)N[C@@H]2CCCC[C@@H]2C(=O)N2CC[C@@H]3[C@H](C4CC4)Nc4ccccc4[C@@H]32)cc1 [Example 180, N-((1R,2S)-2-{[(3aR,4S,9bR)-4-Cyclopropyl-2,3,3a,4,5,9b-hexahydro-1H-pyrrolo[3,2-c]quinolin-1-yl]carbonyl}cyclohexyl)-4-methoxybenzamide]	< 1 nM
O=C(CCc1ccccc1)N[C@@H]1CCCC[C@@H]1C(=O)N1CC[C@@H]2[C@H](C3CC3)Nc3ccccc3[C@@H]21 [Example 181, N-((1R,2S)-2-{[(3aR,4S,9bR)-4-Cyclopropyl-2,3,3a,4,5,9b-hexahydro-1H-pyrrolo[3,2-c]quinolin-1-yl]carbonyl}cyclohexyl)-3-phenylpropanamide]	< 1 nM
O=C(N[C@@H]1CCCC[C@@H]1C(=O)N1CC[C@@H]2[C@H](C3CC3)Nc3ccccc3[C@@H]21)c1ccc(F)cc1 [Example 182, N-((1R,2S)-2-{[(3aR,4S,9bR)-4-Cyclopropyl-2,3,3a,4,5,9b-hexahydro-1H-pyrrolo[3,2-c]quinolin-1-yl]carbonyl}cyclohexyl)-4-fluorobenzamide]	< 1 nM

Second part, the molecule after the results:

IC50	Structure (SMILES)
< 10 nM	CCNC(=O)N[C@@H]1CCCC[C@@H]1C(=O)N1CC[C@@H]2[C@H](c3ccccc3)Nc3ccccc3[C@@H]21 [Example 151, N-Ethyl-N′-((1R,2S)-2-{[(3aR,4R,9bR)-4-phenyl-2,3,3a,4,5,9b-hexahydro-1H-pyrrolo[3,2-c]quinolin-1-yl]carbonyl}cyclohexyl)urea]
< 10 nM	CC(C)NC(=O)N[C@@H]1CCCC[C@@H]1C(=O)N1CC[C@@H]2[C@H](c3ccccc3)Nc3ccccc3[C@@H]21 [Example 152, N-Isopropyl-N′-((1R,2S)-2-{[(3aR,4R,9bR)-4-phenyl-2,3,3a,4,5,9b-hexahydro-1H-pyrrolo[3,2-c]quinolin-1-yl]carbonyl}cyclohexyl)urea]
< 1 nM	CCCCNC(=O)N[C@@H]1CCCC[C@@H]1C(=O)N1CC[C@@H]2[C@H](c3ccccc3)Nc3ccccc3[C@@H]21 [Example 153, N-Butyl-N′-((1R,2S)-2-{[(3aR,4R,9bR)-4-phenyl-2,3,3a,4,5,9b-hexahydro-1H-pyrrolo[3,2-c]quinolin-1-yl]carbonyl}cyclohexyl)urea]
< 1 nM	CCCCCCNC(=O)N[C@@H]1CCCC[C@@H]1C(=O)N1CC[C@@H]2[C@H](c3ccccc3)Nc3ccccc3[C@@H]21 [Example 154, N-Hexyl-N′-((1R,2S)-2-{[(3aR,4R,9bR)-4-phenyl-2,3,3a,4,5,9b-hexahydro-1H-pyrrolo[3,2-c]quinolin-1-yl]carbonyl}cyclohexyl)urea]
< 10 nM	CCOC(=O)CCNC(=O)N[C@@H]1CCCC[C@@H]1C(=O)N1CC[C@@H]2[C@H](c3ccccc3)Nc3ccccc3[C@@H]21 [Example 155, Ethyl N-{[((1R,2S)-2-{[(3aR,4R,9bR)-4-phenyl-2,3,3a,4,5,9b-hexahydro-1H-pyrrolo[3,2-c]quinolin-1-yl]carbonyl}cyclohexyl)amino]carbonyl}-beta-alaninate]
< 10 nM	O=C(NCCCO)N[C@@H]1CCCC[C@@H]1C(=O)N1CC[C@@H]2[C@H](c3ccccc3)Nc3ccccc3[C@@H]21 [Example 156, N-(3-Hydroxypropyl)-N′-((1R,2S)-2-{[(3aR,4R,9bR)-4-phenyl-2,3,3a,4,5,9b-hexahydro-1H-pyrrolo[3,2-c]quinolin-1-yl]carbonyl}cyclohexyl)urea]
< 10 nM	COCCCNC(=O)N[C@@H]1CCCC[C@@H]1C(=O)N1CC[C@@H]2[C@H](c3ccccc3)Nc3ccccc3[C@@H]21 [Example 161, N-(3-Methoxypropyl)-N′-((1R,2S)-2-{[(3aR,4R,9bR)-4-phenyl-2,3,3a,4,5,9b-hexahydro-1H-pyrrolo[3,2-c]quinolin-1-yl]carbonyl}cyclohexyl)urea]
< 10 nM	CCOCCNC(=O)N[C@@H]1CCCC[C@@H]1C(=O)N1CC[C@@H]2[C@H](c3ccccc3)Nc3ccccc3[C@@H]21 [Example 162, N-(2-Ethoxyethyl)-N′-((1R,2S)-2-{[(3aR,4R,9bR)-4-phenyl-2,3,3a,4,5,9b-hexahydro-1H-pyrrolo[3,2-c]quinolin-1-yl]carbonyl}cyclohexyl)urea]
< 1 nM	CC(C)CCNC(=O)N[C@@H]1CCCC[C@@H]1C(=O)N1CC[C@@H]2[C@H](c3ccccc3)Nc3ccccc3[C@@H]21 [Example 166, N-(3-Methylbutyl)-N′-((1R,2S)-2-{[(3aR,4R,9bR)-4-phenyl-2,3,3a,4,5,9b-hexahydro-1H-pyrrolo[3,2-c]quinolin-1-yl]carbonyl}cyclohexyl)urea]
< 10 nM	O=C(NCC(F)(F)F)N[C@@H]1CCCC[C@@H]1C(=O)N1CC[C@@H]2[C@H](c3ccccc3)Nc3ccccc3[C@@H]21 [Example 173, N-((1R,2S)-2-{[(3aR,4R,9bR)-4-Phenyl-2,3,3a,4,5,9b-hexahydro-1H-pyrrolo[3,2-c]quinolin-1-yl]carbonyl}cyclohexyl)-N′-(2,2,2-trifluoroethyl)urea]
